Source: ChEMBL document CHEMBL4033698, “One-pot synthesis and biological evaluation of N-(aminosulfonyl)-4-podophyllotoxin carbamates as potential anticancer agents” (Bioorg Med Chem Lett, 2017)
Active and inactive are the calls of the source. The rule behind the calls is not given here.

How the values were obtained:
[1] = tested on: A549; assay: Cytotoxicity against human A549 cells after 48 hrs by MTT assay; format: functional, cell-based; settings: A549, 48 h
[2] = tested on: WI-38; assay: Cytotoxicity against human WI38 cells after 48 hrs by MTT assay; format: cell-based; settings: WI-38, 48 h
[3] = tested on: HeLa; assay: Cytotoxicity against human HeLa cells after 48 hrs by MTT assay; format: functional, cell-based
[4] = tested on: HepG2; assay: Cytotoxicity against human HepG2 cells after 48 hrs by MTT assay; format: functional, cell-based; settings: HepG2, 48 h
[5] = tested on: HCT-8; assay: Cytotoxicity against human HCT8 cells after 48 hrs by MTT assay; format: functional, cell-based; settings: HCT-8, 48 h
[6] = tested on: HeLa; assay: Inhibition of tubulin polymerization in human HeLa cells assessed as reduction in polymerized tubulin expression at 2 uM after 24 hrs by chemiluminescence assay; format: cell-based
[7] = tested on: HeLa; assay: Induction of microtubule disruption in human HeLa cells assessed as dense microtubule at 1 uM after 6 hrs by DAPI staining based immunofluorescence microscopic analysis; format: cell-based
[8] = tested on: HeLa; assay: Induction of microtubule disruption in human HeLa cells assessed as short microtubule at 1 uM after 6 hrs by DAPI staining based immunofluorescence microscopic analysis; format: cell-based
[9] = tested on: HeLa; assay: Induction of microtubule disruption in human HeLa cells assessed as round microtubule at 1 uM after 6 hrs by DAPI staining based immunofluorescence microscopic analysis; format: cell-based
[10] = tested on: HeLa; assay: Induction of apoptosis in human HeLa cells assessed as nuclear fragmentation at 0.1 to 1 uM after 24 hrs by Hoechst 33258 staining based fluorescence microscopic analysis; format: functional, cell-based
[11] = molecular target: Cyclin-dependent kinase 1 (Homo sapiens) (UniProt P06493); assay: Reduction in phosphorylated CDC2 level in human HeLa cells after 24 hrs by Western blot analysis; format: cell-based
[12] = tested on: HeLa; assay: Cell cycel arrest in human HeLa cells assessed as decrease in accumulation at G1 phase after 24 hrs by propidium iodide staining based assay; format: functional
[13] = tested on: HeLa; assay: Induction of microtubule disruption in human HeLa cells assessed as round microtubule after 6 hrs by DAPI staining based immunofluorescence microscopic analysis; format: cell-based
[14] = tested on: HeLa; assay: Inhibition of tubulin polymerization in human HeLa cells assessed as reduction in polymerized tubulin expression at 0.5 uM after 24 hrs by chemiluminescence assay; format: cell-based
[15] = tested on: HeLa; assay: Induction of microtubule disruption in human HeLa cells assessed as dense microtubule after 6 hrs by DAPI staining based immunofluorescence microscopic analysis; format: cell-based
[16] = tested on: HeLa; assay: Induction of microtubule disruption in human HeLa cells assessed as nuclear fragmentation after 6 hrs by DAPI staining based immunofluorescence microscopic analysis; format: cell-based
[17] = tested on: HeLa; assay: Induction of microtubule disruption in human HeLa cells assessed as short microtubule after 6 hrs by DAPI staining based immunofluorescence microscopic analysis; format: cell-based
[18] = tested on: HeLa; assay: Induction of microtubule disruption in human HeLa cells assessed as nuclear condensation after 6 hrs by DAPI staining based immunofluorescence microscopic analysis; format: cell-based
[19] = tested on: HeLa; assay: Upregulation of cyclin B1 expression in human HeLa cells after 24 hrs by Western blot analysis; format: functional, cell-based
[20] = tested on: HeLa; assay: Cell cycel arrest in human HeLa cells assessed as increase in accumulation at G2/M phase after 24 hrs by propidium iodide staining based assay; format: functional
[21] = tested on: HeLa; assay: Upregulation of CDC2 expression in human HeLa cells after 24 hrs by Western blot analysis; format: functional, cell-based
[22] = tested on: HeLa; assay: Induction of microtubule disruption in human HeLa cells assessed as cell shrinkage after 6 hrs by DAPI staining based immunofluorescence microscopic analysis
[23] = tested on: HeLa; assay: Induction of apoptosis in human HeLa cells assessed as upregulation of p53 expression by Western blot analysis; format: functional, cell-based
[24] = tested on: HeLa; assay: Induction of apoptosis in human HeLa cells assessed as increase in intracellular reactive oxygen species level after 24 hrs by DCFH-DA staining based laser confocal microscopic analysis; format: functional, cell-based
[25] = tested on: HeLa; assay: Induction of apoptosis in human HeLa cells assessed as morphological changes at 0.1 to 1 uM after 24 hrs by Hoechst 33258 staining based fluorescence microscopic analysis; format: functional, cell-based

Sequence of Cyclin-dependent kinase 1 (Homo sapiens) (P06493 whole entry, looked up): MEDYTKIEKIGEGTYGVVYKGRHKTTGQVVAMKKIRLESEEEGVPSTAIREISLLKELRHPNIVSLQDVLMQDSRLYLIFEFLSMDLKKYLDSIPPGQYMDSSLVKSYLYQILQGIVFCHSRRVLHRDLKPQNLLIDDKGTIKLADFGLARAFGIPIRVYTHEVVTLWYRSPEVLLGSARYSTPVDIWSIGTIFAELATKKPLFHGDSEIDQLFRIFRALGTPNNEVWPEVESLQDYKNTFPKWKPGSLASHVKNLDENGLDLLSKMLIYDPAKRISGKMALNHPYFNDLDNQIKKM

COc1cc([C@@H]2c3cc4c(cc3[C@H](OC(=O)NS(=O)(=O)N3CCN(C5CCCC5)CC3)[C@H]3COC(=O)[C@H]23)OCO4)cc(OC)c1OC
IC50 [1]: 9.8 µM
IC50 [2]: 47.9 µM
IC50 [3]: 57.6 µM

CCCNS(=O)(=O)NC(=O)O[C@H]1c2cc3c(cc2[C@@H](c2cc(OC)c(OC)c(OC)c2)[C@H]2C(=O)OC[C@@H]21)OCO3
IC50 [1]: 9 µM
IC50 [4]: 2.8 µM
IC50 [2]: 63.3 µM
IC50 [3]: 1.9 µM
IC50 [5]: 23.2 µM

COc1cc([C@@H]2c3cc4c(cc3[C@H](OC(=O)NS(=O)(=O)NC3CCCCC3)[C@H]3COC(=O)[C@H]23)OCO4)cc(OC)c1OC
IC50 [1]: 2.6 µM
IC50 [4]: 3.7 µM
IC50 [2]: 78.5 µM
IC50 [3]: 4.6 µM
IC50 [5]: 20.1 µM

COc1cc([C@@H]2c3cc4c(cc3[C@H](OC(=O)NS(=O)(=O)NC3CCN(C)CC3)[C@H]3COC(=O)[C@H]23)OCO4)cc(OC)c1OC
IC50 [1]: 3.3 µM
IC50 [4]: 15.6 µM
IC50 [2]: 68.7 µM
IC50 [3]: 4.1 µM
IC50 [5]: 96 µM

CC(=O)O[C@H]1C(=O)[C@@]2(C)[C@H]([C@H](OC(=O)c3ccccc3)[C@]3(O)C[C@H](OC(=O)[C@H](O)[C@@H](NC(=O)c4ccccc4)c4ccccc4)C(C)=C1C3(C)C)[C@]1(OC(C)=O)CO[C@@H]1C[C@@H]2O
inhibition [6]: inactive

COc1cc([C@@H]2c3cc4c(cc3[C@H](OC(=O)NS(=O)(=O)N3CCN(c5ccc([N+](=O)[O-])cc5)CC3)[C@H]3COC(=O)[C@H]23)OCO4)cc(OC)c1OC
IC50 [1]: 13.7 µM
IC50 [4]: 6 µM
IC50 [2]: 77.2 µM
IC50 [3]: 35.6 µM
IC50 [5]: > 100 µM

COc1cc2c(c(OC)c1OC)-c1ccc(OC)c(=O)cc1[C@@H](NC(C)=O)CC2
Activity [7]: Active
Activity [8]: Active
Activity [9]: Active

COc1cc([C@@H]2c3cc4c(cc3[C@H](OC(=O)NS(=O)(=O)N3CCOCC3)[C@H]3COC(=O)[C@H]23)OCO4)cc(OC)c1OC
Activity [10]: Active
Activity [11]: Dose-dependent effect
IC50 [1]: 1.5 µM
IC50 [4]: 0.7 µM
Activity [12]: Dose-dependent effect
IC50 [2]: 109 µM
IC50 [3]: 0.5 µM
Activity [13]: Dose-dependent effect
inhibition [14]: Active
inhibition [6]: Active
Activity [15]: Dose-dependent effect
Activity [16]: Dose-dependent effect
Activity [17]: Dose-dependent effect
Activity [18]: Dose-dependent effect
Activity [19]: Dose-dependent effect
Activity [20]: Dose-dependent effect
Activity [21]: Dose-dependent effect
Activity [22]: Dose-dependent effect
IC50 [5]: 16.5 µM
Activity [23]: Dose-dependent effect
Activity [24]: Dose-dependent effect
Activity [25]: Active

COc1cc([C@@H]2c3cc4c(cc3[C@@H](O[C@@H]3O[C@@H]5CO[C@@H](C)O[C@H]5[C@H](O)[C@H]3O)[C@H]3COC(=O)[C@H]23)OCO4)cc(OC)c1O [ETOPOSIDE]
IC50 [4]: 13.4 µM
IC50 [2]: 46.9 µM
IC50 [3]: 24.9 µM
IC50 [5]: 26.3 µM

COc1cc([C@@H]2c3cc4c(cc3[C@H](OC(=O)NS(=O)(=O)N3CCN(c5ccc(F)cc5)CC3)[C@H]3COC(=O)[C@H]23)OCO4)cc(OC)c1OC
IC50 [1]: 12.2 µM
IC50 [2]: 44.3 µM
IC50 [3]: 7.6 µM

COc1cc([C@@H]2c3cc4c(cc3[C@H](OC(=O)NS(=O)(=O)N3CCN(C)CC3)[C@H]3COC(=O)[C@H]23)OCO4)cc(OC)c1OC
IC50 [1]: 5.9 µM
IC50 [4]: 1.5 µM
IC50 [2]: 86.5 µM
IC50 [3]: 0.4 µM
IC50 [5]: > 100 µM

COc1cc([C@@H]2c3cc4c(cc3[C@H](OC(=O)NS(=O)(=O)NC3CC3)[C@H]3COC(=O)[C@H]23)OCO4)cc(OC)c1OC
IC50 [1]: 4.3 µM
IC50 [4]: 8.8 µM
IC50 [2]: 65.3 µM
IC50 [3]: 3.9 µM
IC50 [5]: 45 µM
